Test results published in patent US7718614B2 (Kurume University, priority 2003, dated 2010).
“And” between values parts separate entries of the source, which are not always exact repeats. Equal entries are not always repeated. “Also recorded” adds a separate entry of the source.

Tests used:
peptide-specific IgG [1] = assay: ELISA of serum anti-peptide IgG, Example 2; assay type: in vivo, human; set-up: key: −: absent; +: present, low titer; ++: present, high titer; details: serum of the individual patient; for Anti-peptide IgG, 6th: after 6th vaccination; for Anti-peptide IgG, Pre: pre-vaccination
Experimental: Peptide-specific CTL precursors in PBMCs were detected using a previously reported culture method, while an ELISA was used to detect the serum IgG levels specific for the peptides administrated, as reported previously. In addition, a new monitoring method was conducted to carefully measure the estramustine-induced immunosuppression. Namely, PBMCs were harvested every 2 weeks and were cultured (10^4 cells/well) for 2 days in triplicate assays with […] of phytohemagglutinin (PHA), 10 ng/ml of Epstein-Bar virus (EBV)-derived peptide with HLA-A24 or -A2 binding motif, and 10 ng/ml of two different peptides under vaccination. After 2 days in culture, the amounts of IFN-γ in cell free supernatants were measured in triplicate assays, and viable cell numbers were also counted. To avoid biases in each assay, all the PBMCs were once cryopreserved and the four different PBMCs (two from healthy donors, one from patients PBMCs harvested 2 weeks before the latest vaccination, and one from the latest vaccination) were thawed at the same time in the morning of the experiment. The PBMCs from healthy donors were from the same donors throughout the series of immunological monitoring. Responses (IFN-γ production) to PHA, EBV-peptide, and the vaccinated peptides were considered to be mediated by resting T cells, memory T cells, and activated T cells, respectively.
Except for the following points, substantially the same approach was employed as Example 1.

[2] = test system: peptide-specific CTL precursors in PBMCs; assay: Peptide-specific CTL precursor assay (IFN-γ production), Example 2; assay type: cell-based, human; details: for Cellular response to peptide, 6th (mean specific IFN-γ production): post(6th)-vaccination PBMCs of the individual patient, * p ≦ 0.05, ** p ≦ 0.10 increased versus pre; for Cellular response to peptide, Pre (mean specific IFN-γ production): pre-vaccination PBMCs of the individual patient, response to HIV peptide subtracted
Experimental: Before the first vaccination and 7 days after every 6th vaccination, 30 ml of peripheral blood was obtained, and PBMCs were isolated by means of Ficoll-Conray density gradient centrifugation. Peptide-specific CTL precursors in PBMCs were detected using a previously reported culture method [24]. Briefly, PBMCs (1×10^5 cells/well) were incubated with 10 μM of each peptide in U-bottom-type 96-well microculture plates (Nunc, Roskilde, Denmark) in 200 μl of culture medium. The culture medium contained 45% RPMI-1640 medium, 45% AIM-V™ medium (Invitrogen Corp., Carlsbad, Calif.), 10% FCS, 100 U/ml of interleukin-2 (IL-2) and 0.1 mM MEM nonessential amino acid solution (Invitrogen Corp.). Half of the medium was removed and replaced with the new medium containing a corresponding peptide (20 μM) every 3 days for up to 12 days. […] The target cells (C1R-A2402 or T2, 1×10^4/well) were pulsed with each peptide (10 μM) for 2 hr, and then effector cells (1×10^5/well) were added to each well with the final volume of 200 μl. After incubation for 18 hr, the supernatants (100 μl) were collected, and the amounts of IFN-γ were measured using an enzyme-linked immuno-sorbent assay (ELISA) (limit of sensitivity: 10 pg/ml). All experiments were performed in the four different wells with duplicate assays.
All patients were vaccinated with up to 4 peptides selected from the 16 candidates by pre-vaccination measurements.

[3] = test system: peptide-specific CTL precursors in PBMCs; assay: Peptide-specific CTL precursor assay (IFN-γ production of peptide-stimulated PBMCs), Example 1; assay type: cell-based, human; details: PBMCs of the individual case; for Cellular response to peptide during the combination therapy, 6th: after 6th vaccination; for Cellular response to peptide during the combination therapy, Pre: before combination therapy, grade of each positive well of quadruplicate IFN-γ assay; for Cellular response to peptide during the combination therapy, 12th: after 12th vaccination; for Cellular response to peptide during the combination therapy, 18th: after 18th vaccination;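 as to all read-outs here: PBMCs cultured with each peptide at 10 µM, restimulated at 20 µM every 3 days up to 12 days, then 18 hr with peptide-pulsed target cells, IFN-γ by ELISA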
Experimental: Before the first vaccination and 7 days after every 6th vaccination, 30 ml of peripheral blood was obtained, and PBMCs were isolated by means of Ficoll-Conray density gradient centrifugation. Peptide-specific CTL precursors in PBMCs were detected using a previously reported culture method [24]. Briefly, PBMCs (1×10^5 cells/well) were incubated with 10 μM of each peptide in U-bottom-type 96-well microculture plates (Nunc, Roskilde, Denmark) in 200 μl of culture medium. The culture medium contained 45% RPMI-1640 medium, 45% AIM-V™ medium (Invitrogen Corp., Carlsbad, Calif.), 10% FCS, 100 U/ml of interleukin-2 (IL-2) and 0.1 mM MEM nonessential amino acid solution (Invitrogen Corp.). Half of the medium was removed and replaced with the new medium containing a corresponding peptide (20 μM) every 3 days for up to 12 days. […] The target cells (C1R-A2402 or T2, 1×10^4/well) were pulsed with each peptide (10 μM) for 2 hr, and then effector cells (1×10^5/well) were added to each well with the final volume of 200 μl. After incubation for 18 hr, the supernatants (100 μl) were collected, and the amounts of IFN-γ were measured using an enzyme-linked immuno-sorbent assay (ELISA) (limit of sensitivity: 10 pg/ml). All experiments were performed in the four different wells with duplicate assays. […] Peptides were chosen based upon evaluation of all 4 wells by the order shown above.
Peptide-specific CTL precursors in PBMCs were detected using a previously reported culture method [24], while an ELISA was used to detect the serum IgG levels specific for the peptides administrated, as reported previously [13-15]. […] Namely, PBMCs were harvested every 2 weeks and were cultured (10^4 cells/well) for 2 days in triplicate assays with 10 μl M of phytohemagglutinin (PHA), 10 ng/ml of Epstein-Bar virus (EBV)-derived peptide with HLA-A24 or -A2 binding motif, and 10 ng/ml of two different peptides under vaccination. After 2 days in culture, the amounts of IFN-γ in cell free supernatants were measured in triplicate assays, and viable cell numbers were also counted. To avoid biases in each assay, all the PBMCs were once cryopreserved and the four different PBMCs (two from healthy donors, one from patients PBMCs harvested 2 weeks before the latest vaccination, and one from the latest vaccination) were thawed at the same time in the morning of the experiment. The PBMCs from healthy donors were from the same donors throughout the series of immunological monitoring. Responses (IFN-γ production) to PHA, EBV-peptide, and the vaccinated peptides were considered to be mediated by resting T cells, memory T cells, and activated T cells, respectively.

peptide-specific IgG [4] = assay: ELISA of serum IgG specific for the administered peptides, Example 1; assay type: in vivo, human; set-up: key: −: absent; +: present, low titer; ++: present, high titer; details: serum of the individual case; for Anti-peptide IgG during the combination therapy, 6th: after 6th vaccination; for Anti-peptide IgG during the combination therapy, 12th: after 12th vaccination; for Anti-peptide IgG during the combination therapy, 18th: after 18th vaccination; for Anti-peptide IgG during the combination therapy, Pre: before combination therapy

Sequence	Anti-peptide IgG, 6th (peptide-specific IgG [1])	Anti-peptide IgG, Pre (peptide-specific IgG [1])	Cellular response to peptide, 6th (mean specific IFN-γ production) [2]	Cellular response to peptide, Pre (mean specific IFN-γ production) [2]	Cellular response to peptide during the combination therapy, 6th [3]	Cellular response to peptide during the combination therapy, Pre [3]	Anti-peptide IgG during the combination therapy, 6th (peptide-specific IgG [4])	Anti-peptide IgG during the combination therapy, 12th (peptide-specific IgG [4])	Anti-peptide IgG during the combination therapy, 18th (peptide-specific IgG [4])	Anti-peptide IgG during the combination therapy, Pre (peptide-specific IgG [4])	Cellular response to peptide during the combination therapy, 12th [3]	Cellular response to peptide during the combination therapy, 18th [3]
CYASGWGSI [PSA152]	− (4×) and +	− (3×) and + (2×)	34.8 pg/ml and 0 pg/ml (2×) and 18.8 pg/ml and 15.5 pg/ml	34.5 pg/mL and 39.5 pg/mL and 250 pg/mL and 49.3 pg/mL and 168.8 pg/mL								
DYLRSVLEDF [lck488-497]	−	+ (3×) and −	99 pg/mL and 26.8 pg/mL and 26.5 pg/mL and 19.8 pg/mL	29.8 pg/mL and 36.5 pg/mL and 31.8 pg/mL and 30.5 pg/mL	ABB	C (0.05 < p < 0.1 and 50 ≦ net) and B (p ≦ 0.05 and 25 ≦ net < 50) and ArAB	− (3×) and +	− (2×) and +	+ (2×) and −	−		
LYCESVHNF [PAP213]	++ and + (5×) and − (4×)	+ (6×) and − (5×)	46.8 pg/ml and 850* pg/ml and 0 pg/ml and 186.8** pg/ml and 36.5 pg/ml and 153.5 pg/ml and 622.3* pg/ml and 9.5 pg/ml and 324.3** pg/ml and 32 pg/ml and 392.3* pg/ml	0 pg/ml (3×) and 30.8 pg/ml and 5.8 pg/ml and 375 pg/ml and 250 pg/ml and 28.8 pg/ml and 80 pg/ml and 14.3 pg/ml and 33.8 pg/ml								
HYRKWIKDTI [PSA248]	+ (8×) and ++ (4×)	+ (12×) and − (2×)	100 pg/ml and 505.8 pg/ml and 303.5 pg/ml and 149.8 pg/ml and 0 pg/ml (4×) and 9.3 pg/ml and 21.3 pg/ml and 38.8 pg/ml and 243.5 pg/ml and 9.8 pg/ml	19.5 pg/ml and 28.3 pg/ml and 12.8 pg/ml and 14.3 pg/ml and 6.5 pg/ml and 18.5 pg/ml and 0 pg/ml (2×) and 375 pg/ml and 17 pg/ml and 250 pg/ml and 18 pg/ml and 32.8 pg/ml and 23.8 pg/ml								
DYSARWNEI [SART 293-101]	+ and − (2×)	+ (2×) and −	376.8 pg/ml and 162.5 pg/ml and 228.5** pg/ml	22.8 pg/mL and 125 pg/mL and 57.3 pg/mL		C (0.05 < p < 0.1 and 50 ≦ net)	−	−	−	−		
EYRGFTQDF [SART1 690]	+ (2×) and −	+ and − (2×)	0 pg/mL and 81.8 pg/mL and 35 pg/mL	0 pg/mL and 250 pg/mL and 449 pg/mL								
KLVERLGAA [lck246-254]					A (p ≦ 0.05 and 50 ≦ net)	A (p ≦ 0.05 and 50 ≦ net) and ArC	++ (4×) and −	++ (4×) and −	−	++ (3×) and − (2×)	B (p ≦ 0.05 and 25 ≦ net < 50) (2×) and ArAA	ArAAA
RLAEYQAYI [SART 3309-317]					Ar (p* ≦ 0.1 and 500 ≦ net**)	A (p ≦ 0.05 and 50 ≦ net)	−	−	+	−	Ar (p* ≦ 0.1 and 500 ≦ net**)	ArAC
SYTRLFLIL [SART 2899-907]						A (p ≦ 0.05 and 50 ≦ net)	−	−	−	−		A (p ≦ 0.05 and 50 ≦ net)
ALVEFEDVL [HNRPL140-148]						AAC	++	+		−	ArArArA	
DVWSFGILL [lck422-430]					C (0.05 < p < 0.1 and 50 ≦ net) and A (p ≦ 0.05 and AAA	A (p ≦ 0.05 and 50 ≦ net); also recorded: Ar (p* ≦ 0.1 and 500 ≦ net**); also recorded: C (0.05 < p < 0.1 and 50 ≦ net)	+ (2×) and − (4×)	+ (2×) and − (3×)	−	− (5×) and +	C (0.05 < p < 0.1 and 50 ≦ net)	C (0.05 < p < 0.1 and 50 ≦ net); also recorded: ArAAA
TYSVSFDSL [PSM624]	+	+	167 pg/mL	100 pg/mL								
RIIYDRKFL [EIF4EBP151-59]							− and ++	− and ++	+	− and +	A (p ≦ 0.05 and 50 ≦ net)	B (p ≦ 0.05 and 25 ≦ net < 50)
KLKHYGPGWV [CypB129-138]					A (p ≦ 0.05 and 50 ≦ net)	A (p ≦ 0.05 and 50 ≦ net)	−	− and +		−		
VLEGMEVV [CypB172-179]						A (p ≦ 0.05 and 50 ≦ net)	+	+	+	− (2×) and +	A (p ≦ 0.05 and 50 ≦ net)	B (p ≦ 0.05 and 25 ≦ net < 50); also recorded: A (p ≦ 0.05 and 50 ≦ net)
TFDYLRSVL [lck486]	+	−	58.5 pg/mL	375 pg/mL								
